57 compounds from patent US4393225A, “AI-77 Compounds and pharmaceutically acceptable salts thereof” (Asahi Kasei Kogyo Kabushiki Kaisha, priority 1979, dated 1983) can be followed below.

The first assay concerns ulcer. The experiment in a line: Anti-ulcer test (restraint and water immersion ulcer in rats, i.p.). Type of assay: in vivo, Male Wistar rats. Particulars: Rattus norvegicus, ip, read-out: % Inhibition of Ulcer. As for the experimental part:
The anti-ulcer and anti-edema activity of the compounds was evaluated in efficacy tests described below.
Male Wistar rats weighing about 150 g on average were not fed for 24 hours before the test. Then a solution or suspension of a predetermined concentration of the test compound in physiological saline was administered to them intraperitoneally. One hour after the administration,each rat was restrained in a net cage and submerged in a water both (21° C.) from the tail to xiphistrenun for 6 hours. Test animals were then killed (by dislocation of the cervical vertebrae), the stomach was removed and incised along the curvatura ventriculi major, and the inside wall of the stomach was pathologically examined under microscopic observation. Rats in which the occurrence of an ulceration was substantially not observed were rated O, while others were rated 0.5, 1, 2 or 3, depending on the severity of the ulcer development. The percent inhibition of ulcer was calculated by the following formula: [formula]
On to `CC(C)CC(NC(=O)C(O)C1OC(=O)CC1NC(=O)C1CC1)C1Cc2cccc(O)c2C(=O)O1` (stereo not drawn) [IIIa-1-18], for which the inhibition in vivo at 50 mg/kg is 66%.

The same assay, now with this note: Rattus norvegicus, ip; 25 mg/kg i.p.; read-out: % Inhibition of Ulcer.
For the compound `COc1ccc(CNC(=O)CC(N)C(O)C(O)C(=O)NC(CC(C)C)C2Cc3cccc(O)c3C(=O)O2)cc1` (stereo not drawn) [VII-1-24], the inhibition in vivo at 25 mg/kg was 83%. `CC(C)CC(NC(=O)C(O)C(O)C(N)CC(=O)NC1CC1)C1Cc2cccc(O)c2C(=O)O1` (stereo not drawn) [VII-1-11]: the inhibition in vivo at 25 mg/kg came out at 94%. Regarding `CCNC(=O)CC(NC(C)=O)C(O)C(OC)C(=O)NC(CC(C)C)C1Cc2cccc(O)c2C(=O)O1` (stereo not drawn) [VII-35-1], the inhibition in vivo at 25 mg/kg stood at 66%. Take `CNC(CC(N)=O)C(O)C(OC(=O)CC(C)C)C(=O)NC(CC(C)C)C1Cc2cccc(O)c2C(=O)O1` (stereo not drawn) [VII-20-2]: the inhibition in vivo at 25 mg/kg was found to be 66%. For the compound `CC(C)CC(NC(=O)C(O)C(O)C(N)CC(=O)NCc1ccc(C(C)C)cc1)C1Cc2cccc(O)c2C(=O)O1` (stereo not drawn) [VII-1-38], the inhibition in vivo at 25 mg/kg was found to be 94%. For the compound `CC(C)CC(NC(=O)C(O)C(O)C(N)CC(=O)NCCCC1CCCC1)C1Cc2cccc(O)c2C(=O)O1` (stereo not drawn) [VII-1-34], the inhibition in vivo at 25 mg/kg came out at 83%. Still for that read-out and setting: the same measure for `CCCCCCCCCCCCCCCCCC(=O)NC(CC(=O)NCC)C(O)C(O)C(=O)NC(CC(C)C)C1Cc2cccc(O)c2C(=O)O1` (stereo not drawn) [VII-28-4]: 66%.

`CCNC(CC(N)=O)C(O)C(OC(=O)CC)C(=O)NC(CC(C)C)C1Cc2cccc(OC(=O)C(C)C)c2C(=O)O1` (stereo not drawn) [VII-12-1]: the inhibition in vivo at 25 mg/kg is 56%.

Take `CCOc1cccc2c1C(=O)OC(C(CC(C)C)NC(=O)C(O)C(O)C(N)CC(=O)Nc1ccc(C)cc1)C2` (stereo not drawn) [VII-5-4]: the inhibition in vivo at 25 mg/kg worked out at 78%.

As to `CCCCOc1cccc2c1C(=O)OC(C(CC(C)C)NC(=O)C(O)C(O)C(CC(=O)NC)NCC)C2` (stereo not drawn) [VII-14-1], the inhibition in vivo at 25 mg/kg turned out to be 72%.

As for `CCCCOC(C(=O)NC(CC(C)C)C1Cc2cccc(O)c2C(=O)O1)C(O)C(CC(N)=O)NCC` (stereo not drawn) [VII-17-1], the inhibition in vivo at 25 mg/kg turned out to be 78%.

For `CCCCCCCCCCCCCCCCCC(=O)Oc1cccc2c1C(=O)OC(C(CC(C)C)NC(=O)C(O)C(O)C(N)CC(N)=O)C2` (stereo not drawn) [VII-4-3], the inhibition in vivo at 25 mg/kg stood at 78%.

The assay is the same for the next values; noted with them: Rattus norvegicus, ip; 50 mg/kg i.p.; read-out: % Inhibition of Ulcer.
Consider `CC(=O)Oc1ccc(C(=O)NC2CC(=O)OC2C(O)C(=O)NC(CC(C)C)C2Cc3cccc(O)c3C(=O)O2)cc1` (stereo not drawn) [IIIa-1-34], for which the inhibition in vivo at 50 mg/kg worked out at 66%. As for `C/C=C/C(=O)OC(C(=N)NC(CC(C)C)C1Cc2cccc(O)c2C(=O)O1)C(O)C(N)CC(=O)O` (stereo not drawn) [Vb-2-3], the inhibition in vivo at 50 mg/kg was found to be 66%.

Take `CC(C)CC(NC(=O)C(OC(=O)C(Cl)(Cl)Cl)C1OC(=O)CC1NC(=O)C(Cl)(Cl)Cl)C1Cc2cccc(O)c2C(=O)O1` (stereo not drawn) [IIIa-2-1]: the inhibition in vivo at 50 mg/kg was determined as 44%. `CCCCCCCCCCCCCCCCCCNC1CC(=O)OC1C(OCCCC)C(=O)NC(CC(C)C)C1Cc2cccc(O)c2C(=O)O1` (stereo not drawn) [IIIa-25-3]: the inhibition in vivo at 50 mg/kg was 56%. As for `COC(C(=O)NC(CC(C)C)C1Cc2cccc(O)c2C(=O)O1)C1OC(=O)CC1N` (stereo not drawn) [IIIa-16-1], the inhibition in vivo at 50 mg/kg was 72%. As for `CC(C)CC(NC(=O)C(O)C1OC(=O)CC1NC(=O)c1nnnn1C)C1Cc2cccc(O)c2C(=O)O1` (stereo not drawn) [IIIa-1-27], the inhibition in vivo at 50 mg/kg turned out to be 66%.

Consider `CCCCOC(C(=O)NC(CC(C)C)C1Cc2cccc(OC)c2C(=O)O1)C1OC(=O)CC1NC(=O)CCC` (stereo not drawn) [IIIa-7-10], for which the inhibition in vivo at 50 mg/kg is 33%. Still for that read-out and setting: the same measure for `CCCCCCCCCCCCCCCCCC(=O)NC1CC(=O)OC1C(O)C(=O)NC(CC(C)C)C1Cc2cccc(OC(C)=O)c2C(=O)O1` (stereo not drawn) [IIIa-4-3]: 33%; for `CCOc1cccc2c1C(=O)OC(C(CC(C)C)NC(=O)C(O)C1OC(=O)CC1NC(=O)c1cccn1C(C)=O)C2` (stereo not drawn) [IIIa-5-28]: 44%. For the compound `CCCCCOC(=O)c1ccc(C(=O)NC2CC(=O)OC2C(O)C(=O)NC(CC(C)C)C2Cc3cccc(O)c3C(=O)O2)cc1` (stereo not drawn) [IIIa-1-51], the inhibition in vivo at 50 mg/kg was 44%.

`CCC(=O)COc1cccc2c1C(=O)OC(C(CC(C)C)NC(=O)C(O)C1OC(=O)CC1NC(=O)C(Cl)(Cl)Cl)C2` (stereo not drawn) [IIIa-5-125]: the inhibition in vivo at 50 mg/kg amounted to 33%. As for `CCCCCCCCC=CCCCCCCCC(=O)NC1CC(=O)OC1C(OCC)C(=O)NC(CC(C)C)C1Cc2cccc(OCC)c2C(=O)O1` (stereo not drawn) [IIIa-7-5], the inhibition in vivo at 50 mg/kg came to 22%. Still for that read-out and setting: under `CC(C)CC(NC(=O)C(O)C1OC(=O)CC1NC(=O)c1ccc(O)cc1)C1Cc2cccc(O)c2C(=O)O1` (stereo not drawn) [IIIa-1-35] stands 66%. Consider `CC(=O)Oc1cccc2c1C(=O)OC(C(CC(C)C)NC(=N)C(OC(C)=O)C(O)C(CC(=O)O)NCC1CCCO1)C2` (stereo not drawn) [Vb-12-2], for which the inhibition in vivo at 50 mg/kg worked out at 56%. The same measure, in the same setting: the same measure for `CC(C)CC(=O)OC(C(=O)NC(CC(C)C)C1Cc2cccc(O)c2C(=O)O1)C1C=CC(=O)O1` (stereo not drawn) [IVa-1-5]: 44%; for `CC(C)CC(NC(=O)C(O)C1OC(=O)CC1NC(=O)c1cocc1C(=O)O)C1Cc2cccc(O)c2C(=O)O1` (stereo not drawn) [IIIa-1-60]: 66%.

For the compound `CC(C)COc1cccc2c1C(=O)OC(C(CC(C)C)NC(=O)C(O)C1OC(=O)CC1NC(=O)C(C)C)C2` (stereo not drawn) [IIIa-5-4], the inhibition in vivo at 50 mg/kg stood at 33%. Still for that read-out and setting: the same measure for `CCOC(=O)CCC(=O)NC1CC(=O)OC1C(O)C(=O)NC(CC(C)C)C1Cc2cccc(O)c2C(=O)O1` (stereo not drawn) [IIIa-1-36]: 66%. On to `CCCCCCCCCCCCCCCCCCOC(C(=O)NC(CC(C)C)C1Cc2cccc(O)c2C(=O)O1)C1OC(=O)CC1N` (stereo not drawn) [IIIa-16-3], for which the inhibition in vivo at 50 mg/kg came out at 56%. Still for that read-out and setting: under `COc1cccc2c1C(=O)OC(C(CC(C)C)NC(=O)C(O)C1OC(=O)CC1NCC(Cl)(Cl)Cl)C2` (stereo not drawn) [IIIa-22-7] stands 78%; under `CC(C)CC(NC(=O)C(OC(=O)C(Cl)(Cl)Cl)C1C=CC(=O)O1)C1Cc2cccc(O)c2C(=O)O1` (stereo not drawn) [IVa-1-12], 44%; under `CCCCOc1cccc2c1C(=O)OC(C(CC(C)C)NC(=O)C(OCCCC)C1OC(=O)CC1N)C2` (stereo not drawn) [IIIa-15-2], 56%. With `COC(C)CC(=O)NC1CC(=O)OC1C(OC(C)=O)C(=O)NC(CC(C)C)C1Cc2cccc(OC(C)=O)c2C(=O)O1` (stereo not drawn) [IIIa-3-7], the inhibition in vivo at 50 mg/kg came out at 33%.

As for `CCOc1cccc2c1C(=O)OC(C(CC(C)C)NC(=O)C(O)C1OC(=O)CC1NC(=O)Cc1cccnc1)C2` (stereo not drawn) [IIIa-5-57], the inhibition in vivo at 50 mg/kg came to 33%.

On to `CC(C)CC(NC(=O)C(O)C1C=CC(=O)O1)C1Cc2cccc(OCCc3ccccc3)c2C(=O)O1` (stereo not drawn) [IVa-4-12], for which the inhibition in vivo at 50 mg/kg worked out at 44%.

As for `CCCCOC(C(=O)NC(CC(C)C)C1Cc2cccc(O)c2C(=O)O1)C1OC(=O)CC1NCC` (stereo not drawn) [IIIa-25-1], the inhibition in vivo at 50 mg/kg was 66%. Same read-out and setting: the same measure for `C/C=C/C(=O)NC1CC(=O)OC1C(O)C(=O)NC(CC(C)C)C1Cc2cccc(O)c2C(=O)O1` (stereo not drawn) [IIIa-1-54]: 66%; for `CCCCCCCCC=CCCCCCCCC(=O)NC1CC(=O)OC1C(O)C(=O)NC(CC(C)C)C1Cc2cccc(OC(C)=O)c2C(=O)O1` (stereo not drawn) [IIIa-4-4]: 33%; for `CC(C)CC(NC(=NCCN1CCCCC1)C(O)C(O)C(N)CC(=O)O)C1Cc2cccc(O)c2C(=O)O1` (stereo not drawn) [Vb-1-45]: 94%.

On to `CCCCCCCCCCCC(=O)NC1CC(=O)OC1C(O)C(=O)NC(CC(C)C)C1Cc2cccc(O)c2C(=O)O1` (stereo not drawn) [IIIa-1-10], for which the inhibition in vivo at 50 mg/kg is 66%. For the compound `CCNC1CC(=O)OC1C(OC)C(=O)NC(CC(C)C)C1Cc2cccc(OC(=O)C(C)C)c2C(=O)O1` (stereo not drawn) [IIIa-26-9], the inhibition in vivo at 50 mg/kg amounted to 56%.

Turning to `CCCCCCCCCCCCCCCCCCNC1CC(=O)OC1C(OC(C)=O)C(=O)NC(CC(C)C)C1Cc2cccc(O)c2C(=O)O1` (stereo not drawn) [IIIa-19-3], the inhibition in vivo at 50 mg/kg turned out to be 56%.

In the case of `CC(C)CC(NC(=O)C(O)C1OC(=O)CC1NC(=O)c1ccccc1)C1Cc2cccc(O)c2C(=O)O1` (stereo not drawn) [IIIa-1-14], the inhibition in vivo at 50 mg/kg worked out at 56%.

As for `CCCC(=O)NC1CC(=O)OC1C(OC(C)C)C(=O)NC(CC(C)C)C1Cc2cccc(OCc3ccccc3)c2C(=O)O1` (stereo not drawn) [IIIa-7-11], the inhibition in vivo at 50 mg/kg amounted to 33%.

As to `CCCCCC(=O)OC(C(=O)NC(CC(C)C)C1Cc2cccc(O)c2C(=O)O1)C1C=CC(=O)O1` (stereo not drawn) [IVa-1-7], the inhibition in vivo at 50 mg/kg came out at 44%. On the same count and under the same terms, the same measure for `CC(C)CCc1ccc(COc2cccc3c2C(=O)OC(C(CC(C)C)NC(=O)C(O)C2C=CC(=O)O2)C3)cc1` (stereo not drawn) [IVa-4-22]: 33%; for `CC(=O)OC(C)CC(=O)NC1CC(=O)OC1C(O)C(=O)NC(CC(C)C)C1Cc2cccc(O)c2C(=O)O1` (stereo not drawn) [IIIa-1-48]: 66%. As for `CCCCCCCCCCCC(=O)Oc1cccc2c1C(=O)OC(C(CC(C)C)NC(=O)C(O)C1C=CC(=O)O1)C2` (stereo not drawn) [IVa-3-8], the inhibition in vivo at 50 mg/kg turned out to be 33%.

As for `CC(C)CC(NC(=O)C(O)C(O)C=CC(=O)NCC1CCCCC1)C1Cc2cccc(O)c2C(=O)O1` (stereo not drawn) [VIII-1-5], the inhibition in vivo at 50 mg/kg was determined as 44%. With `Cc1c(CC(=O)NC2CC(=O)OC2C(O)C(=O)NC(CC(C)C)C2Cc3cccc(O)c3C(=O)O2)ccc2ccccc12` (stereo not drawn) [IIIa-1-21], the inhibition in vivo at 50 mg/kg came to 56%. For the compound `CCOc1cccc2c1C(=O)OC(C(CC(C)C)NC(=N)C(OC(=O)C(C)C)C(O)C(N)CC(=O)O)C2` (stereo not drawn) [Vb-6-2], the inhibition in vivo at 50 mg/kg came out at 66%. In the case of `CCOc1cccc2c1C(=O)OC(C(CC(C)C)NC(=O)C(O)C1OC(=O)CC1NCCCCBr)C2` (stereo not drawn) [IIIa-22-25], the inhibition in vivo at 50 mg/kg was determined as 89%.

Turning to `CCCCCCCCCCCCCCCCCCOc1cccc2c1C(=O)OC(C(CC(C)C)NC(=O)C(OC(C)=O)C1OC(=O)CC1NC(=O)C1CCCO1)C2` (stereo not drawn) [IIIa-6-6], the inhibition in vivo at 50 mg/kg was determined as 33%.

In the case of `CCCC(=O)NC1CC(=O)OC1C(O)C(=O)NC(CC(C)C)C1Cc2cccc(O)c2C(=O)O1` (stereo not drawn) [IIIa-1-3], the inhibition in vivo at 50 mg/kg was determined as 66%.
